Molecules are shown by their SMILES.

From patent US20080221100A1, “SOLUBLE EPOXIDE HYDROLASE INHIBITORS” (Arete Therapeutics, Inc., priority 2006, published 2008) come the findings set out here.

Series [1] deals with soluble epoxide hydrolase (sEH). Briefly: Fluorescent assay for mouse and human soluble epoxide hydrolase (CMNPC substrate). Format: biochemical, mouse or human, not specified. The source says: Fluorescent Assay for Mouse and Human Soluble Epoxide Hydrolase Recombinant mouse sEH (MsEH) and human sEH (HsEH) were produced in a baculovirus expression system as previously reported. Grant et al., J. Biol. Chem., 268:17628-17633 (1993); Beetham et al., Arch. Biochem. Biophys., 305:197-201 (1993). The expressed proteins were purified from cell lysate by affinity chromatography. Wixtrom et al., Anal. Biochem., 169:71-80 (1988). Protein concentration was quantified using the Pierce BCA assay using bovine serum albumin as the calibrating standard. […] They contained no detectable esterase or glutathione transferase activity which can interfere with the assay. The assay was also evaluated with similar results in crude cell lysates or homogenate of tissues. The IC50s for each inhibitor were determined according to the following procedure: Substrate: [drawing 155] […] Jones P. D. et al.; Analytical Biochemistry 2005; 343: pp. 66-75) Solutions: Bis/Tris HCl 25 mM pH 7.0 containing 0.1 mg/mL of BSA (buffer […] at 0.25 mM in DMSO. Mother solution of enzyme in buffer A (Mouse sEH at 6 μg/mL and Human sEH at 5 μg/mL). Inhibitor dissolved in DMSO at the appropriate concentration. Protocol: In a black 96 well plate, fill all the wells with 150 μL of buffer A. Add 2 μL of DMSO in well A2 and A3, and then add 2 μL of inhibitor solution in A1 and A4 through A12. Add 150 μL of buffer A in row A, then mix several time and transfer 150 μL to row B. Repeat this operation up to row H. The 150 μL removed from row H is discarded. Add 20 μL of buffer A in column 1 and 2, then add 20 μL of enzyme solution to column 3 to 12. Incubate the plate for 5 minutes in the plate reader at 30° C. During incubation prepare the working solution of substrate by mixing 3.68 mL of buffer A (4×0.920 mL) with 266 μL (2×133 μL) of substrate solution). At t=0, add 30 μL of working substrate solution with multi-channel pipette labeled “Briggs 303” and start the reading ([S]final: 5 μM). Read with ex: 330 nm (20 nm) and em: 465 nm (20 nm) every 30 second for 10 minutes. The velocities are used to analyze and calculate the IC50s.

In turn, `O=C(Nc1ccc(F)cc1)NC1CCN(S(=O)(=O)c2ccc(Cl)cc2)CC1` [Compound 19, 1-[1-(4-Chloro-benzenesulfonyl)-piperidin-4-yl]-3-(4-fluoro-phenyl)-urea] gave a melting point of 160 to 162 °C. In addition, the “% Inhibition” value in series [1] (Conc 500 nM) stood at 85%.
In turn, `CC(=O)N1CCC(NC(=O)Nc2ccc(F)cc2)CC1` [Compound 21, 1-(1-Acetyl-piperidin-4-yl)-3-(4-fluoro-phenyl)-urea] gave a melting point of 146 to 148 °C. In addition, the “% Inhibition” value in series [1] (Conc 500 nM) came to 74%.
Consider `O=C(Nc1cccc(F)c1)NC1CCN(S(=O)(=O)c2ccccc2)CC1` [Compound 22, 1-(1-Benzenesulfonyl-piperidin-4-yl)-3-(3-fluoro-phenyl)-urea], for which the melting point was in the range of 186 to 188 °C. The “% Inhibition” value in series [1] (Conc 50 nM) is on record as 82%.
Taken in the same sequence, the figures for `O=C(Nc1cccc(F)c1)NC1CCN(S(=O)(=O)c2ccc(Cl)cc2)CC1` [Compound 23, 1-[1-(4-Chloro-benzenesulfonyl)-piperidin-4-yl]-3-(3-fluoro-phenyl)-urea] were 245 to 248 °C and 91%.
For `CS(=O)(=O)N1CCC(NC(=O)Nc2ccc(F)cc2)CC1` [Compound 27, 1-(4-Fluoro-phenyl)-3-(1-methanesulfonyl-piperidin-4-yl)-urea], in that order: 186 to 188 °C and 80%.
Taken in the same sequence, the figures for `O=C(Nc1cccc(F)c1)NC1CCN(S(=O)(=O)c2cccc(C(F)(F)F)c2)CC1` [Compound 28, 1-(3-Fluoro-phenyl)-3-[1-(3-trifluoromethyl-benzenesulfonyl)-piperidin-4-yl]-urea] were 86 to 88 °C and 94%.
For the compound `O=C(Nc1cccc(C(F)(F)F)c1)NC1CCN(S(=O)(=O)c2ccc(Cl)cc2)CC1` [Compound 30, 1-[1-(4-Chloro-benzenesulfonyl)-piperidin-4-yl]-3-(3-trifluoromethyl-phenyl)-urea], the melting point is 116 to 118 °C. In series [1] (Conc 50 nM), the “% Inhibition” value was determined as 90%.
Take `CS(=O)(=O)N1CCC(NC(=O)Nc2cccc(F)c2)CC1` [Compound 31, 1-(3-Fluoro-phenyl)-3-(1-methanesulfonyl-piperidin-4-yl)-urea]: the melting point was in the range of 212 to 214 °C. The “% Inhibition” value in series [1] (Conc 500 nM) came to 80%.
For `CC(=O)N1CCC(NC(=O)Nc2cccc(F)c2)CC1` [Compound 32, 1-(1-Acetyl-piperidin-4-yl)-3-(3-fluoro-phenyl)-urea], in that order: 112 to 114 °C and 80%.
`O=C(Nc1ccc(Cl)cc1)NC1CCN(C(=O)c2ccc(N3CCOCC3)cc2)CC1` [Compound 36, 1-(4-Chlorophenyl)-3-(1-(4-morpholinobenzoyl)piperidin-4-yl)urea]: the melting point fell in the range of 303 to 308 °C. Also, the “% Inhibition” value in series [1] (Conc 50 nM) is 95%.
Taken in the same sequence, the figures for `O=C(Nc1ccc(C(F)(F)F)cc1)NC1CCN(C(=O)c2ccc(N3CCOCC3)cc2)CC1` [Compound 37, 1-(1-(4-Morpholinobenzoyl)piperidin-4-yl)-3-(4-(trifluoromethyl)phenyl)urea] were 312 to 315 °C and 98%.
Taken in the same sequence, the figures for `CC(C)(C)OC(=O)C(C)(C)Oc1ccc(C(=O)N2CCC(NC(=O)Nc3ccc(C(F)(F)F)cc3)CC2)cc1` [Compound 38, Tert-butyl 2-methyl-2-(4-(4-(3-(4-(trifluoromethyl)phenyl)ureido)piperidine-1-carbonyl)phenoxy)propanoate] were 206 to 208 °C and 89%.
For `Cc1nc(C(=O)N2CCC(NC(=O)Nc3ccc(C(F)(F)F)cc3)CC2)c(C)o1` [Compound 39, 1-(1-(2,5-Dimethyloxazole-4-carbonyl)piperidin-4-yl)-3-(4-(trifluoromethyl)phenyl)urea], in that order: 217 to 219 °C and 92%.
In the case of `CC(C)(Oc1ccc(C(=O)N2CCC(NC(=O)Nc3ccc(C(F)(F)F)cc3)CC2)cc1)C(=O)O` [Compound 40, 2-Methyl-2-(4-(4-(3-(4-(trifluoromethyl)phenyl)ureido)piperidine-1-carbonyl)phenoxy)propanoic acid], the melting point lay in the range of 197 to 199 °C. Further, in series [1] (Conc 50 nM), the “% Inhibition” value came out at 68%.
For `CC(C)(C)C(=O)N1CCC(NC(=O)Nc2ccc(C(F)(F)F)cc2)CC1` [Compound 41, 1-(1-Pivaloylpiperidin-4-yl)-3-(4-(trifluoromethyl)phenyl)urea], in that order: 263 to 265 °C and 97%.
Consider `CC(C)C(=O)N1CCC(NC(=O)Nc2ccc(Br)cc2)CC1` [Compound 46, 1-(4-bromophenyl)-3-(1-isobutyrylpiperidin-4-yl)urea], for which the melting point lay in the range of 193 to 204 °C.
In turn, `CC(C)(O)CCC(=O)N1CCC(NC(=O)Nc2ccc(C(F)(F)F)cc2)CC1` [Compound 47, 1-(1-(4-hydroxy-4-methylpentanoyl)piperidin-4-yl)-3-(4-(trifluoromethyl)phenyl)urea] gave a melting point of 184 to 186 °C. The “% Inhibition” value in series [1] (Conc 200 nM) is recorded as 93%.
For `O=C(Nc1ccc(C(F)(F)F)cc1)NC1CCN(C(=O)CCO)CC1` [Compound 49, 1-(1-(3-hydroxypropanoyl)piperidin-4-yl)-3-(4-(trifluoromethyl)phenyl)urea], in that order: 158 to 160 °C and 90%.
Taken in the same sequence, the figures for `O=C(Nc1ccc(C(F)(F)F)cc1)NC1CCN(S(=O)(=O)CCCO)CC1` [Compound 50, 1-(1-(3-hydroxypropylsulfonyl)piperidin-4-yl)-3-(4-(trifluoromethyl)phenyl)urea] were 200 to 205 °C and 98%.
For `COCC(=O)N1CCC(NC(=O)Nc2ccc(C(F)(F)F)cc2)CC1` [Compound 51, 1-(1-(2-methoxyacetyl)piperidin-4-yl)-3-(4-(trifluoromethyl)phenyl)urea], the melting point lay within 214 to 215 °C. Besides, the “% Inhibition” value in series [1] (Conc 2000 nM) is on record as 100%.
The compound `CC(C)(C)[S+]([O-])N1CCC(NC(=O)Nc2ccc(C(F)(F)F)cc2)CC1` (centres unmarked) [Compound 52, 1-(1-(tert-butylsulfinyl)piperidin-4-yl)-3-(4-(trifluoromethyl)phenyl)urea] yielded a melting point of 229 to 230 °C. Also, the “% Inhibition” value in series [1] (Conc 200 nM) stood at 94%.
Taken in the same sequence, the figures for `O=C(Nc1ccc(C(F)(F)F)cc1)NC1CCN(C(=O)CCCO)CC1` [Compound 53, 1-(1-(4-hydroxybutanoyl)piperidin-4-yl)-3-(4-(trifluoromethyl)phenyl)urea] were 175 to 182 °C and 100%.
Consider `CC(C)(C)S(=O)(=O)N1CCC(NC(=O)Nc2ccc(C(F)(F)F)cc2)CC1` [Compound 54, 1-(1-(tert-butylsulfonyl)piperidin-4-yl)-3-(4-(trifluoromethyl)phenyl)urea], for which the melting point is 260 to 261 °C. The “% Inhibition” value in series [1] (Conc 200 nM) amounted to 97%.
Take `O=C(Nc1ccc(C(F)(F)F)cc1)NC1CCN(C(=O)N2CCOCC2)CC1` [Compound 55, 1-(1-(morpholine-4-carbonyl)piperidin-4-yl)-3-(4-(trifluoromethyl)phenyl)urea]: the melting point is 234 to 236 °C. In addition, the “% Inhibition” value in series [1] (Conc 2000 nM) came out at 43%.

For orientation: % Inhibition means the drop in the measured response relative to a control, in per cent. A low value points to a response near the control. One may read the melting point as the temperature, or range, at which the solid turns liquid.
